For twelve compounds, % of control, dTM and % of inhibition results are on record in ChEMBL document CHEMBL5465560, “Selectivity Literature for EUbOPEN Chemogenomic Library” (2024).

The target in assay [1] is Ephrin type-A receptor 7 (Homo sapiens) (UniProt Q15375). The assay can be described thus: Selectivity interaction (ProQinase) EUB0000171b EPHA7.
Assay [2] addresses Mitogen-activated protein kinase 6 (Homo sapiens) (UniProt Q16659). The conditions noted are these: at 10 µM.
Assay [3] has as its target Calcium/calmodulin-dependent protein kinase kinase 2 (Homo sapiens) (UniProt Q96RR4). The assay can be described thus: Selectivity interaction (Kinase panel (DSF assay)) EUB0001558a CAMKK2. For orientation: In DSF a fluorescence change marks the thermal transition of the protein.
Assay [4] addresses Tyrosine-protein kinase Srms (Homo sapiens) (UniProt Q9H3Y6). The conditions noted are these: at 10 µM.
Assay [5] deals with T1, Serine/threonine-protein kinase TAO3 (Homo sapiens) (UniProt Q9H2K8).
T1 sequence (whole entry): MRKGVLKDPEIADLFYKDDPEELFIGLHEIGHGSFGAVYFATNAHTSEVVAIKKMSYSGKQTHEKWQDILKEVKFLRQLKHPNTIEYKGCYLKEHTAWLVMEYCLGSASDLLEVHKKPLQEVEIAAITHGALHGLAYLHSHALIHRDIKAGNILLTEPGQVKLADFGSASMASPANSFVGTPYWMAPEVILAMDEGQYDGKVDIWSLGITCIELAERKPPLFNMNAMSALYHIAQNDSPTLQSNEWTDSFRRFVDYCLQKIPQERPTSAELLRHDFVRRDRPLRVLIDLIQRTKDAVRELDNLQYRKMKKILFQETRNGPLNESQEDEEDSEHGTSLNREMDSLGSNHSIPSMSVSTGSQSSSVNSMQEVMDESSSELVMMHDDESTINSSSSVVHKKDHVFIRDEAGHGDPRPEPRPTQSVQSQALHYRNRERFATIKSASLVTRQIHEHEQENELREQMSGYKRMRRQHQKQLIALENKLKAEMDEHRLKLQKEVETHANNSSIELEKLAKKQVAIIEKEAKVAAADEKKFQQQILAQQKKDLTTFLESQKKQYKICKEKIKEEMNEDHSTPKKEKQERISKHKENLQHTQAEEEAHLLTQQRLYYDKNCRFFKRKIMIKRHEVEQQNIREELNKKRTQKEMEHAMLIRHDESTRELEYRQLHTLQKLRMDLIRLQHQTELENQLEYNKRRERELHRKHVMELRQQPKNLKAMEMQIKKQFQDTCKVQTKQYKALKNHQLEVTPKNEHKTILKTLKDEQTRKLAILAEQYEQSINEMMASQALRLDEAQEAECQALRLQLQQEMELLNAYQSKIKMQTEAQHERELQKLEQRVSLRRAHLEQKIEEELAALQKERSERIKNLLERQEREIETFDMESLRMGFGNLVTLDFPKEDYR
The assay can be described thus: Selectivity interaction (KinomeScan (DiscoverX)) EUB0001049a TAOK3. The conditions noted are these: at 1 µM.

The target of assay [6] is Serine/threonine-protein kinase tousled-like 2 (Homo sapiens) (UniProt Q86UE8). The assay can be described thus: Selectivity interaction (KinomeScan (DiscoverX)) EUB0001049a TLK2. The conditions noted are these: at 1 µM.
Assay [7] concerns the target T2, Receptor tyrosine-protein kinase erbB-4 (Homo sapiens, UniProt Q15303). The assay can be described thus: Selectivity interaction (KinomeScan (DiscoverX)) EUB0000655a ERBB4. The conditions noted are these: at 10 µM.
The target in assay [8] is Serine/threonine-protein kinase MRCK beta (Homo sapiens) (UniProt Q9Y5S2). The assay can be described thus: Selectivity interaction (KinomeScan (DiscoverX)) EUB0000045b CDC42BPB.
Sequence of Serine/threonine-protein kinase MRCK beta (Homo sapiens) (Q9Y5S2 whole entry, the tested form may be a part): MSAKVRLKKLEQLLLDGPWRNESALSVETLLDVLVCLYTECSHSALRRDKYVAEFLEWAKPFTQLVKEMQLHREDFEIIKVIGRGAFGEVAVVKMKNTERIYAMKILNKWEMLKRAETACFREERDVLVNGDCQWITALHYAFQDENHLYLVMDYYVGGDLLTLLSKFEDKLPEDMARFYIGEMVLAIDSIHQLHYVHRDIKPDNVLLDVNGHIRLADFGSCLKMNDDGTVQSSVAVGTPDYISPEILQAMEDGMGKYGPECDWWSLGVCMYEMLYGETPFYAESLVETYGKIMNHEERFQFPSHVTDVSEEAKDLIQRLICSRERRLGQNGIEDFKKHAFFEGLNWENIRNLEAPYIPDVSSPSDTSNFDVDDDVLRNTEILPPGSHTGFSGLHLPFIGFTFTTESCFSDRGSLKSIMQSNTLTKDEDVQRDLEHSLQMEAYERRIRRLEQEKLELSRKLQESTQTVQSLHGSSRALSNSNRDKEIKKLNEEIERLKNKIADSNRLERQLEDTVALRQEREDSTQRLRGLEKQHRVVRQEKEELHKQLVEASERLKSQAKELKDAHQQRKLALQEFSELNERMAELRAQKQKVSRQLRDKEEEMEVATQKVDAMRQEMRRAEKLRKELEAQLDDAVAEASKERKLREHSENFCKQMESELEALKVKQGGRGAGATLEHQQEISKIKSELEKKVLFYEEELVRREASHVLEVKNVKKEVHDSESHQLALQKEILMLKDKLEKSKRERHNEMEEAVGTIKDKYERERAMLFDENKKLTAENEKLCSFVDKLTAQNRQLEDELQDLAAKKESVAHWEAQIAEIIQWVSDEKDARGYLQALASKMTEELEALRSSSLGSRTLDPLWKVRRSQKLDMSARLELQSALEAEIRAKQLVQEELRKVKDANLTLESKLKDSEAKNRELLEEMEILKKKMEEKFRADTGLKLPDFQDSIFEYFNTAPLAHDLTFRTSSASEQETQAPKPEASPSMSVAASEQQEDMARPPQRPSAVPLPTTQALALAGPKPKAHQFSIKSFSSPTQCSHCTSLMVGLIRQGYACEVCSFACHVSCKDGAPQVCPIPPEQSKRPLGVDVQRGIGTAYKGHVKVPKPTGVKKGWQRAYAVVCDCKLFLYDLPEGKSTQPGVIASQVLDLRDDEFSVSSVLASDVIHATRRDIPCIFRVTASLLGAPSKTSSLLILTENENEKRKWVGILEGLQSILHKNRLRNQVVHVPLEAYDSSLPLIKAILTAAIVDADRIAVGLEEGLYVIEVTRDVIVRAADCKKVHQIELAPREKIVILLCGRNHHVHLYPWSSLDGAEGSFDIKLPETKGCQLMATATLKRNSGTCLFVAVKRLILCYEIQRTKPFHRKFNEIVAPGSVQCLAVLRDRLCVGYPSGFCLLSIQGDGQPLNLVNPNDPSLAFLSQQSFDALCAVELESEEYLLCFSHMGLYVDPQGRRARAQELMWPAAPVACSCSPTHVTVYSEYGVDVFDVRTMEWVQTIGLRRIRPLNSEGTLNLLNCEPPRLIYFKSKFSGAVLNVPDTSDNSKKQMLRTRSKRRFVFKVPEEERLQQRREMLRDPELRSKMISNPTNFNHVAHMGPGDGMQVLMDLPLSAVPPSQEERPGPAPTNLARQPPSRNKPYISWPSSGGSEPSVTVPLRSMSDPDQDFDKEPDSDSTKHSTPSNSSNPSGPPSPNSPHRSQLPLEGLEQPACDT
For assay [9], the target named is LIM domain kinase 1 (Homo sapiens) (UniProt P53667). The assay can be described thus: Selectivity interaction (KinomeScan (DiscoverX)) EUB0000607a LIMK1. The conditions noted are these: at 10 µM.
Assay [10] concerns the target T2, Receptor tyrosine-protein kinase erbB-4. The assay can be described thus: Selectivity interaction (KinomeScan (DiscoverX)) EUB0000607a ERBB4. The conditions noted are these: at 10 µM.
Assay [11] has as its target Tyrosine-protein kinase SYK (Homo sapiens, UniProt P43405). The assay can be described thus: Selectivity interaction (ActivX KiNativ screen (kinase selectivity in THP-1 cell lysates)) EUB0000639a SYK. The assay is classed as subcellular. The conditions noted are these: lysate, at 1 µM.
Assay [12] has as its target Serine/threonine-protein kinase Nek7 (Homo sapiens) (UniProt Q8TDX7). The assay can be described thus: Selectivity interaction (Kinase panel (Invitrogen)) EUB0000639a NEK7. The conditions noted are these: at 200 nM.
Assay [13] addresses Ribosomal protein S6 kinase alpha-5 (Homo sapiens) (UniProt O75582). The assay can be described thus: Selectivity interaction (KinomeScan (DiscoverX)) EUB0000877a RPS6KA5. The conditions noted are these: at 10 µM.
The target in assay [14] is T3, Dual specificity mitogen-activated protein kinase kinase 3 (Homo sapiens) (UniProt P46734).
T3 sequence (whole entry): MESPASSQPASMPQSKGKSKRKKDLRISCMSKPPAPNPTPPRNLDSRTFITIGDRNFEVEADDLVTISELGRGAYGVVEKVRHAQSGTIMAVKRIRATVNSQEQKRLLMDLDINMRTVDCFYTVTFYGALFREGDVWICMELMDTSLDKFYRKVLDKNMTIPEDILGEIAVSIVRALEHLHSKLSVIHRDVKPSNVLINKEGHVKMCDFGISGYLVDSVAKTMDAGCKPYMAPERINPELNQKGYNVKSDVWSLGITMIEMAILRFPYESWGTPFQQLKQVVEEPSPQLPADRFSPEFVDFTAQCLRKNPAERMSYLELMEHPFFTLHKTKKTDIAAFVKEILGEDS
The assay can be described thus: Selectivity interaction (KinomeScan (DiscoverX)) EUB0001619a MAP2K3. The conditions noted are these: at 1 µM.

The target in assay [15] is Misshapen-like kinase 1 (Homo sapiens, UniProt Q8N4C8). The assay can be described thus: Selectivity interaction (Kinase panel (literature)) EUB0001199aCl MINK1. The conditions noted are these: at 1 µM.

Sequence of Ephrin type-A receptor 7 (Homo sapiens) (Q15375 28-998 limits assumed): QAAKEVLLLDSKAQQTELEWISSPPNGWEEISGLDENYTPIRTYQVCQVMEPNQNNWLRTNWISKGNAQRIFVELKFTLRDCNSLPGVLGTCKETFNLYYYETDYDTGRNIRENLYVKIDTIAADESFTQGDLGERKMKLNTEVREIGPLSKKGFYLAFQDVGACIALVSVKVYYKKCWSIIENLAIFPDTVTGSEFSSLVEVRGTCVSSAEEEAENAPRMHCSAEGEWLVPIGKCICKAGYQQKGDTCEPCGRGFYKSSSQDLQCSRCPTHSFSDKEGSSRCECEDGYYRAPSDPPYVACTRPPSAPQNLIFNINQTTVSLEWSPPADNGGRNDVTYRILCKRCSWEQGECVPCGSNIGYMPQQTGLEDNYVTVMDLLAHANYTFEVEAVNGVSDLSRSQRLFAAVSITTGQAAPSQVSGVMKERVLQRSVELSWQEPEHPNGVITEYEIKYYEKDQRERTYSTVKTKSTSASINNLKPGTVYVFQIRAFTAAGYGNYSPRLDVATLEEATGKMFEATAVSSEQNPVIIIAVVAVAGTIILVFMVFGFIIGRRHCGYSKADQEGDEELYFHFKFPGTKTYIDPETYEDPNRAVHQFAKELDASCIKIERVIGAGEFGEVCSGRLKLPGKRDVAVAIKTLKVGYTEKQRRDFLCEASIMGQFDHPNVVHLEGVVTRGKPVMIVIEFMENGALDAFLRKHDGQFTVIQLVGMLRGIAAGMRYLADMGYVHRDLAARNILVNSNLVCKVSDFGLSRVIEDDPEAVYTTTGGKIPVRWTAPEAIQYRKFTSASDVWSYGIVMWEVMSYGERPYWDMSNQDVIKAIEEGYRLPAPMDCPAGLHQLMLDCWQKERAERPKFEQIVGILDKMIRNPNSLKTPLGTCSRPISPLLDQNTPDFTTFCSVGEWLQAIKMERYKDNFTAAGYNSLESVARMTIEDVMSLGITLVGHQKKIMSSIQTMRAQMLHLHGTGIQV
T2 sequence (Q15303 whole entry): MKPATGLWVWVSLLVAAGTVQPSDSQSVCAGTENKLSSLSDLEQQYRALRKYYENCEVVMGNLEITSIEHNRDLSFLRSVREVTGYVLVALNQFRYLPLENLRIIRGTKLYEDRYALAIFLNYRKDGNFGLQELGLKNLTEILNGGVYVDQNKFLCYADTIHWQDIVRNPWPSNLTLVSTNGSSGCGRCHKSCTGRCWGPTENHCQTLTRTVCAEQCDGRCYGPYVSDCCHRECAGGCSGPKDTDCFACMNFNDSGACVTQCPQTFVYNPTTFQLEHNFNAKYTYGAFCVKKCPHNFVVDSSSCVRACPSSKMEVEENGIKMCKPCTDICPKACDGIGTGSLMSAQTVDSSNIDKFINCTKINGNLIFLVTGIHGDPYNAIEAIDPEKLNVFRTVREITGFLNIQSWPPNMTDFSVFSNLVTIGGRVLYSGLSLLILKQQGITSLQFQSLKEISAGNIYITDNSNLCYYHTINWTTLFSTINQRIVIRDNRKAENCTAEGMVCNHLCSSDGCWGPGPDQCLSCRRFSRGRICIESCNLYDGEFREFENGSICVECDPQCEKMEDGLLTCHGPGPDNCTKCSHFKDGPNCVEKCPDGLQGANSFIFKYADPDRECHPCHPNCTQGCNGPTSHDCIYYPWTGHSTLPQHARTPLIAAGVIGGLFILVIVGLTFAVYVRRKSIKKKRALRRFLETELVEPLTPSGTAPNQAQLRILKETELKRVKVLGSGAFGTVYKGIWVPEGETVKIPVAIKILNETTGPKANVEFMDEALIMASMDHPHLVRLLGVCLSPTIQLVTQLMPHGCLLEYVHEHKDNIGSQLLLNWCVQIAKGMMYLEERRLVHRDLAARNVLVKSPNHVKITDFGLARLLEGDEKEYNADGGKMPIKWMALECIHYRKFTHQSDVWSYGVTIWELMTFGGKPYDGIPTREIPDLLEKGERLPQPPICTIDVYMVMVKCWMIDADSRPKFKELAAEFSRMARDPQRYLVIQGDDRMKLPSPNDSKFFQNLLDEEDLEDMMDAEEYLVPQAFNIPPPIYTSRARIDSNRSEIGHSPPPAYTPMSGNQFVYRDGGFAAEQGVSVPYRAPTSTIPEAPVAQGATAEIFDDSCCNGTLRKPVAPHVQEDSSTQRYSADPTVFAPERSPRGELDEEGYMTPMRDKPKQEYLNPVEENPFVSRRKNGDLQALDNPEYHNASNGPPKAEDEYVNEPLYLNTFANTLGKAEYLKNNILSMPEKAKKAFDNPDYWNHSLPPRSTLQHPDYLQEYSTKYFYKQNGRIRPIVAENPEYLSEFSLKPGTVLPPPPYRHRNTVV
Sequence of Calcium/calmodulin-dependent protein kinase kinase 2 (Homo sapiens) (Q96RR4 2-588 limits assumed): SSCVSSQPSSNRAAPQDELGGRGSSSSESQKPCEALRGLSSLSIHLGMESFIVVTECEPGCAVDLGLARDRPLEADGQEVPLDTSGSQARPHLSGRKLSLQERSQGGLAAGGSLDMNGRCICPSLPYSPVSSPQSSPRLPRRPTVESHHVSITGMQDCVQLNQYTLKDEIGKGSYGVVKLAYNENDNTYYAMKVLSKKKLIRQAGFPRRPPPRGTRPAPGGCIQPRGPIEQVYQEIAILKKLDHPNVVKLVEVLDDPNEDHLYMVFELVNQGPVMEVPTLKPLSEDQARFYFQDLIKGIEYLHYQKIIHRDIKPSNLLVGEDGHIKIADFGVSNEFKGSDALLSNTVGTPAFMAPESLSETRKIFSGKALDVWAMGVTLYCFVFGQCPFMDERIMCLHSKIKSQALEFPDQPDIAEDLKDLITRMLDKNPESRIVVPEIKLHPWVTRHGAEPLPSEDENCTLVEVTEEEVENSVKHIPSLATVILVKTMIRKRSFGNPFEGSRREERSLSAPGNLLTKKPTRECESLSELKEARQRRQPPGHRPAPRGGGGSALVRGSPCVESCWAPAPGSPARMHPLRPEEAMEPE
Sequence of Serine/threonine-protein kinase Nek7 (Homo sapiens) (Q8TDX7 whole entry, looked up): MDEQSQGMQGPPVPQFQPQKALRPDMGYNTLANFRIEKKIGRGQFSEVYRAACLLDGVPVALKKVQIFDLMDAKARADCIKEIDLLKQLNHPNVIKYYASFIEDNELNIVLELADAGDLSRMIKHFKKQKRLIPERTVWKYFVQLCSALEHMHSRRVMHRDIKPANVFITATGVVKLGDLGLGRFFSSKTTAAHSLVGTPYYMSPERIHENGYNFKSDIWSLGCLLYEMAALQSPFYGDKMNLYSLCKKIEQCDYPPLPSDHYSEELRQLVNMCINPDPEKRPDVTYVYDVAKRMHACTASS

Consider `C=CC(=O)Nc1cccc(C(=O)Nc2ccc(Nc3cc(-c4[nH]c(SC)nc4C)ccn3)cc2)c1`, for which the % of control in assay [1] (at 1 µM) amounted to 93%; in assay [1] (at 5 µM) it was 89%.
The compound `Cc1cc([C@@H](C)Nc2ccccc2C(=O)O)c2nc(N3CCOCC3)cc(=O)n2c1` [AZD-6482] came in with a % of control in [2] of 100%.
Take `CC(C)(O)[C@H](F)CN1Cc2cc(NC(=O)c3cnn4cccnc34)c(N3CCOCC3)cc2C1=O`: the dTM in assay [3] was 4.3 K.
Consider `CCN(CC)CCCCNc1ncc2cc(-c3cc(OC)cc(OC)c3)c(NC(=O)NC(C)(C)C)nc2n1`, for which the % of control in assay [4] turned out to be 100%.
On to `COc1cc(Nc2nc(C)cc(-c3cnn4nc(OC)ccc34)n2)cc(C(F)(F)F)c1`, for which the % of control in [5] stood at 75%; in assay [6], 98%.
Compound `CN(C)CCOc1ccc(-c2nc(-c3ccncc3)c(-c3ccc4c(c3)CC/C4=N\O)[nH]2)cc1` gave a % of control in assay [7] of 73%.
Consider `C=CC(=O)Nc1cc(-n2c(=O)ccc3cnc4ccc(-c5ccc(NS(C)(=O)=O)cc5)cc4c32)ccc1C`, for which the % of control in assay [8] (at 1 µM) and in assay [8] (at 10 µM) was 100% in each case.
Take `CNC(=O)Nc1ccc(-c2nc(N3CC4CCC(C3)O4)c3cnn(C4CCC5(CC4)OCCO5)c3n2)cc1`: the figures for the % of control in assay [9] and in assay [10] were 95% and 100%, respectively.
Turning to `CC[C@@H]1[C@H](F)C(=O)N[C@@H]1COc1nccc2cc(C(N)=O)c(OC)cc12` [ZIMLOVISERTIB], the % of inhibition is -0.8% in [11] and -1.03% in assay [12].
For the compound `CCC(=O)N1CC[C@H](Nc2ncnc3c2CN(c2cnc(OC)c(C(F)(F)F)c2)CC3)C1` [LENIOLISIB], the % of inhibition in [13] came to 76%.
In assay [14], `N#Cc1cccc(-c2c[nH]c3ncnc(N4CCOCC4)c23)c1` gave a % of control of 71%.
Turning to `CN1Cc2nccc(-c3cn(C)nc3-c3ccc(F)cc3)c2C1=O`, in [15], the % of inhibition was found to be 42%.
